Common to all, as to format: biochemical
In experiment [1] the target is K9D3 (derivative of Anaerostipes caccae KARI) (Anaerostipes caccae, UniProt B0MCX7, S56A/S58D). Briefly: Inhibition of purified KARI by DHMB, spectrophotometric NADPH oxidation assay. The settings on record: competitive vs. acetolactate, 30° C., pH 6.8, NADPH 0.2 mM, read-out: KI Values for KARI Inhibition by DHMB Isomers.
Procedure: (§1) The buffer was 0.1 M K^+ Hepes, pH 6.8, containing 10 mM MgCl2 and 1 mM EDTA. NADPH was present at 0.2 mM, and racemic acetolactate was present at either 3 mM or 0.725 mM (S) isomer. The rate of NADPH oxidation in the presence and absence of either fast or slow DHMB was measured. Vmax for each sample was calculated from the observed rate and the known acetolactate Km using the Michaelis-Menten equation. A volumetric Ki was estimated for each measurement in the presence of DHMB using the Michaelis-Menten equation as modified for competitive inhibition vs. acetolactate (the Km term in the MM equation is multiplied by (1+[I]/Ki), and the equation is solved for Ki. The results were converted to mM upon completion of the NMR experiment and are shown in Table 5.
Experiment [2] has as its target JEA1 (derivative of Pseudomonas fluorescens KARI) (Pseudomonas fluorescens, UniProt Q4K608). The description is as above. Particulars: competitive vs. acetolactate, 30° C., pH 6.8, NADPH 0.2 mM, read-out: KI Values for KARI Inhibition by DHMB Isomers.
Procedure: as §1
The target of experiment [3] is dihydroxyacid dehydratase (DHAD) (Streptococcus mutans serotype c, UniProt Q8DRT7). Briefly: Inhibition of DHAD conversion of DHIV to 2-KIV by DHMB, colorimetric assay. Particulars: read-out: inhibition constants (Ki) for DHAD. The procedure:
101: 999-1004 (1993). The assay took place in a 2 mL Eppendorf tube placed in a heating block maintained at 30° C. […] The assay was initiated by adding a 10× concentrated stock of substrate. Samples were removed (0.35 mL) at times 0.1 and 30 minutes, and the reaction was stopped by mixing into 0.35 mL 0.1 N HCl with 0.05% 2,4-dinitrophenylhydrazine (Aldrich) in a second Eppendorf tube. After incubating 30 minutes at room temperature, 0.35 mL of 4N NaOH was added to the mixture, mixed, and centrifuged at 15,000×G for 2 minutes in a centrifuge (Beckman-Coulter Microfuge 18). The absorbance of the solution at 540 nm was then measured in a 1 cm pathlength cuvette using a Cary 300 Bio UV-Vis spectrophometer (Varian). Based on a standard curve using authentic 2-KIV (Fluka), 1 OD absorbance at 540 nm is produced by 0.28 mM 2-KIV. […] Both forms of DHMB behaved liked competitive inhibitors of DHIV. […] The fast and slow isomers of DHMB had calculated inhibition constants of 7 mM and 5 mM, respectively.

K9D3 (derivative of Anaerostipes caccae KARI), sequence (B0MCX7 1-343, stated change not applied): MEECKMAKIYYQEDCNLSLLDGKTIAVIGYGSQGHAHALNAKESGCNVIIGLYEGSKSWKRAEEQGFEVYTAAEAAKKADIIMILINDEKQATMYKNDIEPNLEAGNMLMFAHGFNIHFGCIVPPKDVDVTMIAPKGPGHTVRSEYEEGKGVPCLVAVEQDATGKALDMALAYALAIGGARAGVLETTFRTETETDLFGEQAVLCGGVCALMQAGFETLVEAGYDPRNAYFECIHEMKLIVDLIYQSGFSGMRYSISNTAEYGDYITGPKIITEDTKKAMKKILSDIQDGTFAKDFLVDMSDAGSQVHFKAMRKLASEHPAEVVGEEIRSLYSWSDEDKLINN
dihydroxyacid dehydratase (DHAD), sequence (Q8DRT7 whole entry): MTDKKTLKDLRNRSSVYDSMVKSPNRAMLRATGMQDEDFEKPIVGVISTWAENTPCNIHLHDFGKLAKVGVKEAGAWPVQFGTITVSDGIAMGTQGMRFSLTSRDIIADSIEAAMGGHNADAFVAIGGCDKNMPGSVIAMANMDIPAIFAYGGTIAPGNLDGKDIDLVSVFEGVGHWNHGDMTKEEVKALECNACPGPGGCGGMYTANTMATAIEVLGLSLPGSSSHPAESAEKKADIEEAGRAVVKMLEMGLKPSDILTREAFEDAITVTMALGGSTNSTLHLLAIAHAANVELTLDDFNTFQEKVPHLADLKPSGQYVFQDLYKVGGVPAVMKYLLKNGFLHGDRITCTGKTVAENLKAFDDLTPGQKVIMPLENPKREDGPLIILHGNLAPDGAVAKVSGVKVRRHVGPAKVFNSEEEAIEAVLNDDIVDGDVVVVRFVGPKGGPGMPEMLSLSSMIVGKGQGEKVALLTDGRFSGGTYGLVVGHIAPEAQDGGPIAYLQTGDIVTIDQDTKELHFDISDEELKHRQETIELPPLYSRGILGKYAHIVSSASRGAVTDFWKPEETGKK
JEA1 (derivative of Pseudomonas fluorescens KARI), sequence (Q4K608 whole entry): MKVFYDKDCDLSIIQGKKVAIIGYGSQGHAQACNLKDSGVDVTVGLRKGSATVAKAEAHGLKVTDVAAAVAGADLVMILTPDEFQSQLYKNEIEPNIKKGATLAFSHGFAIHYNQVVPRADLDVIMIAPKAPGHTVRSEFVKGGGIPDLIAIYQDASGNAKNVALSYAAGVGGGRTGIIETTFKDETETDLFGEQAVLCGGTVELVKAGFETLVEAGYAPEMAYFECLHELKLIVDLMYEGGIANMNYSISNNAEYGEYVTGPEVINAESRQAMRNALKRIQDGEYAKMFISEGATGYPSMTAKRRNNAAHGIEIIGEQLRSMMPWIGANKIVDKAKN

What is called Ki is the equilibrium dissociation constant of an inhibitor or competing ligand from its target. As for `C[C@H](O)[C@](C)(O)C(=O)O` [Fast DHMB, 2,3-dihydroxy-2-methyl butyrate], the Ki in experiment [1] amounted to 300 µM; in experiment [2] it was 230 µM; in experiment [3] it was 7000 µM.

As for `C[C@@H](O)[C@](C)(O)C(=O)O` [Slow DHMB, 2,3-dihydroxy-2-methyl butyrate], the Ki was determined as 200 µM in experiment [1], 230 µM in experiment [2] and 5000 µM in experiment [3].

(Values after patent US20120258873A1 (priority 2011, published 2012).)
